# Assay results from PMC12069643, “Structural insights into the selective recognition of RF-amide peptides by neuropeptide FF receptor 2” (EMBO Reports, 2025).
# Like-named read-outs stand apart in the source and are kept apart here. Ends that are not written are not given here.
# B1: human NPSF (SQAFLFQPQRF-NH2) (peptide)
# peptide: SQAFLFQPQRF-NH2
# notes: human form of NPSF (SQA-NPFF), an RF-amide peptide of the NPFF series; also called hNPSF; SQA-NPFF; source: synthetic peptide; bought: Cusabio (custom order)
# Key:
# human NPFFR2 = biological target: T1, human NPFFR2 (Homo sapiens, UniProt Q9Y5X5); assay: GloSensor forskolin-stimulated cAMP assay, NPFFR2 wild-type; type: cell-based; conditions: NPFFR2 wild-type (100% DNA treated for hNPSF), HEK293T, 0.5 μM forskolin; for Emax: HEK-293T, mean of three independent experiments ± SEM; for EC50: three independent experiments
# T1 construct: expressed in transfected cells; host or cells: HEK293T (pcDNA3.1 NPFFR2)
# Procedure: Figure 1 Structural analysis and downstream signaling of NPFFR2. (A) The concentration-dependent response of various agonists on NPFFR2 is measured using a forskolin-stimulated cAMP assay. Data points represent mean values from three independent experiments (each with technical triplicate), with error bars indicating SEM (standard error of the mean). Raw data were normalized to the vehicle-treated (0%) and 0.5 μM forskolin-treated (100%) responses. […] (C) The extracellular loop 2 (ECL2, pink) and N-terminus (Nt, blue) of NPFFR2 are depicted using a cartoon model. […] Source data are available online for this figure.
# (§1) HEK293T cells were seeded at a density of 6 × 10^5 cells per well in a six-well cell culture plate (SPL) and co-transfected with expression plasmids encoding GloSensor™ and each NPFFR construct, using 1 µg to 4 µg of DNA per well according to the Lipofectamine™ 2000 Transfection Reagent (Invitrogen) protocol. After 48 h of incubation under standard conditions (37 °C, 5% CO2), the cells were detached using Accutase solution (Sigma-Aldrich) and washed with PBS. The cells were then pelleted by centrifugation, resuspended in CO2-independent medium (Gibco) supplemented with Firefly D-Luciferin (0.5 mg/ml, NanoLight), and distributed into a 96-well white plate (SPL). After a 2-hour incubation, serially diluted ligands and 0.5 μM forskolin were added to each well to detect ligand-induced signaling. Luminescence signals were measured using a Mithras LB940 instrument (Berthold) with a measurement time of 1 s per well.
# (§2) Data from the GloSensor^TM cAMP signaling assays were analyzed using GraphPad Prism with a three-parameter logistic model to fit concentration-response curves for both wild-type (WT) and mutant receptors. Mutant expression levels and DNA amounts were adjusted to match WT conditions. ΔpEC50 values were calculated by subtracting the log EC50 of the WT receptor from that of each mutant. Results are presented as mean ± SEM from three independent biological replicates, each performed in duplicate or more. Error bars represent the SEM. Statistical significance was assessed using one-way ANOVA, followed by Dunnett’s tests comparisons to the WT receptor. Significance levels were reported as follows: ns (not significant, P > 0.05); *P < 0.05; **P < 0.01; ***P < 0.001.
# human NPFFR1 = biological target: T2, human NPFFR1 (Homo sapiens, UniProt Q9GZQ6); assay: GloSensor forskolin-stimulated cAMP assay, NPFFR1 wild-type; type: cell-based; conditions: for Emax: HEK-293T, read-out: Emax ± SEM
# T2 construct: expressed in transfected cells; host or cells: HEK293T (pcDNA3.1 NPFFR1)
# Procedure: Figure 4 RF-amide ligand selectivity of NPFFR2 and NPFFR1. […] Key residues at the fifth and sixth positions from the C-terminus, are highlighted in bold. […] (B) The concentration-dependent response of various agonists on NPFFR1 was measured using a forskolin-stimulated cAMP assay. Data points represent the mean values from three independent experiments (each with technical triplicate), with error bars indicating SEM. Raw data were normalized to the vehicle-treated (0%) and 0.5 μM forskolin-treated (100%) responses. (C) Structural comparison between the binding modes of hNPSF to NPFFR2 and GnIH to NPFFR1. An AlphaFold2 prediction model of the GnIH–NPFFR1 complex was generated using the hNPSF–NPFFR2 complex structure as a template. The hydrophobicity of NPFFRs is shown with surface representation, where purple indicates hydrophilic regions and bronze indicates hydrophobic regions. […] (D) The cAMP response to the ligands hNPSF and GnIH was measured for both wild-type NPFFR1 and a mutant form of NPFFR1 using a forskolin-stimulated cAMP assay. […] Symbols represent mean values from three independent experiments, each conducted in technical triplicates, with error bars indicating SEM. Responses were normalized to vehicle-treated controls (0%) and 0.5 μM forskolin-treated controls (100%). Source data are available online for this figure.
# as §1, §2
# [1] = biological target: T3, NPFFR1-chimera (Q37^NtL/I293^6.58S/T307^7.31N) (Homo sapiens, UniProt Q9GZQ6, I293S/Q37L/T307N); assay: GloSensor forskolin-stimulated cAMP assay, NPFFR1 triple mutant (chimera Q37NtL/I2936.58S/T3077.31N); type: cell-based; conditions: HEK293T, 0.5 μM forskolin, three independent experiments
# T3 construct: expressed in transfected cells; host or cells: HEK293T
# Procedure: Figure 4 RF-amide ligand selectivity of NPFFR2 and NPFFR1. (A) Sequence alignment between human NPFFs and RFRPs, the endogenous ligands of NPFFRs, which share PXRF-NH2 motif at their C-terminus (shown in green letters). Key residues at the fifth and sixth positions from the C-terminus, are highlighted in bold. […] (B) The concentration-dependent response of various agonists on NPFFR1 was measured using a forskolin-stimulated cAMP assay. Data points represent the mean values from three independent experiments (each with technical triplicate), with error bars indicating SEM. Raw data were normalized to the vehicle-treated (0%) and 0.5 μM forskolin-treated (100%) responses. (C) Structural comparison between the binding modes of hNPSF to NPFFR2 and GnIH to NPFFR1. An AlphaFold2 prediction model of the GnIH–NPFFR1 complex was generated using the hNPSF–NPFFR2 complex structure as a template. The hydrophobicity of NPFFRs is shown with surface representation, where purple indicates hydrophilic regions and bronze indicates hydrophobic regions. […] (D) The cAMP response to the ligands hNPSF and GnIH was measured for both wild-type NPFFR1 and a mutant form of NPFFR1 using a forskolin-stimulated cAMP assay. […] Symbols represent mean values from three independent experiments, each conducted in technical triplicates, with error bars indicating SEM. Responses were normalized to vehicle-treated controls (0%) and 0.5 μM forskolin-treated controls (100%). Source data are available online for this figure.
# To further validate whether these specific residues in NPFFR1 affect ligand selectivity, we generated a triple mutant of NPFFR1, in which residues Q37^Nt, I293^6.58, and T307^7.31 of NPFFR1 were replaced by the corresponding NPFFR2 residues, Leu, Ser, and Asn, respectively (Appendix Fig. S10). […]
# HEK293T cells were seeded at a density of 6 × 10^5 cells per well in a six-well cell culture plate (SPL) and co-transfected with expression plasmids encoding GloSensor™ and each NPFFR construct, using 1 µg to 4 µg of DNA per well according to the Lipofectamine™ 2000 Transfection Reagent (Invitrogen) protocol. […] Luminescence signals were measured using a Mithras LB940 instrument (Berthold) with a measurement time of 1 s per well.
# as §2, with “Results are presented as mean ± SEM from three independent biological replicates, each performed in duplicate or more. Error bars represent the SEM.” left out, “Significance levels were reported as follows: ns (not significant, P > 0.05); *P < 0.05; **P < 0.01; ***P < 0.001.” left out
# [2] = biological target: NPFFR1 mutant (Q37^NtL, I293^6.58S, and T307^7.31N) (UniProt Q9GZQ6)
# [3] = biological target: NPFFR1 mutant (Q37^NtL, I293^6.58S, and T307^7.31N) (UniProt Q9GZQ6 1-430, Q37^NtL | I293^6.58S | T307^7.31N); assay: cell-based or functional assay
# [4] = biological target: T4, human Neuropeptide FF Receptor 2 (8-420) (human, UniProt Q9Y5X5-2 8-420); assay: cryo-EM structure; purified NPFFR2, Gi heterotrimer and scFv16 mixed 1:1.5:2 with 0.01 mM hNPSF, HRV3C protease and apyrase, overnight at 4 °C; M1 anti-FLAG column and SEC in 20 mM Tris-Cl pH 8.0, 150 mM NaCl, LMNG/CHS, 100 nM hNPSF; global resolution 3.2 Å; conditions: both partners purified
# T4 construct: human NPFFR2, residues 8-420; GFP tag cut off with HRV3C protease while the complex was assembled; the 8xHis tag follows GFP; In the final model the N-terminal 24 residues and the residues beyond 348 are missing; also called NPFFR2; NPFF receptor 2; source: Sf9, purified (Ni-NTA; in LMNG/CHS); not shown: FLAG, N-terminal, kept; GFP, C-terminal, cleaved; His8, C-terminal, cleaved
# T4 sequence (Q9Y5X5 110-522): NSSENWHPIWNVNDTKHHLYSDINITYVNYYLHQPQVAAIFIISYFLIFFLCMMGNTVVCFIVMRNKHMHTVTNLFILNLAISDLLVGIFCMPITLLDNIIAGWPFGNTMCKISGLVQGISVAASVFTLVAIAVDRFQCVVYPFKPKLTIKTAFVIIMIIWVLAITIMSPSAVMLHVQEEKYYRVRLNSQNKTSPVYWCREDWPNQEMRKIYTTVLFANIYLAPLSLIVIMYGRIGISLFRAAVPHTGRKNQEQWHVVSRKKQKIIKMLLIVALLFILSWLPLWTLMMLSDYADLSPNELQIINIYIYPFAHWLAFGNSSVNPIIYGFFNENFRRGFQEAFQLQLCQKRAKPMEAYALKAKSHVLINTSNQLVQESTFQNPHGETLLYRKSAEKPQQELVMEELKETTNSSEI
# T1 sequence (Q9Y5X5 103-522): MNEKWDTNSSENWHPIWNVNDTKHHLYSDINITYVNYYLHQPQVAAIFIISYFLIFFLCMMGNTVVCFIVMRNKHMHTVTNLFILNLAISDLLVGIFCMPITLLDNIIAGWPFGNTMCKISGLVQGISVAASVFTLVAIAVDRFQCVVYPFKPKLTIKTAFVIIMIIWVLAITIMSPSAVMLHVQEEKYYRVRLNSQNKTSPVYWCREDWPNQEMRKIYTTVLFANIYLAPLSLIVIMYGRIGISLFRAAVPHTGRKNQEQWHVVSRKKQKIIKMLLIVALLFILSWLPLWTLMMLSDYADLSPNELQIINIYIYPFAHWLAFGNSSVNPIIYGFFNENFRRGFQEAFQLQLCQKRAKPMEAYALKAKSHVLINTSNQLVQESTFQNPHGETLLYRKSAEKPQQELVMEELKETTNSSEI
# T2 sequence (Q9GZQ6 whole entry): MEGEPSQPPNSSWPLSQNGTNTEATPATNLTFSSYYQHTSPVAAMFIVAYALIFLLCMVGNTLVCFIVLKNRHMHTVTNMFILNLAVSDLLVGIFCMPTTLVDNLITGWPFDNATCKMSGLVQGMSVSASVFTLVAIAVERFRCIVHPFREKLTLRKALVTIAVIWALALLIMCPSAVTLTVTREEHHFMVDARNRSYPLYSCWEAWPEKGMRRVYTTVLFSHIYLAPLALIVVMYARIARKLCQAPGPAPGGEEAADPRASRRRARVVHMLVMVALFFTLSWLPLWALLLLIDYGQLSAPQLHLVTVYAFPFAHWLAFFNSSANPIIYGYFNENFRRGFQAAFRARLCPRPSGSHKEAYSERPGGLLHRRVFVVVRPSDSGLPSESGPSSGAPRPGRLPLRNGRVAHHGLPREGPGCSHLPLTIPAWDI
# T3 sequence (Q9GZQ6 whole entry Q37L/I293S/T307N): as the sequence (Q9GZQ6 whole entry) above, with Q37L, I293S, T307N counted along it
# NPFFR1 mutant (Q37^NtL, I293^6.58S, and T307^7.31N) (UniProt Q9GZQ6), sequence (Q9GZQ6 other isoform, or with tags, fused parts or gaps mutant): as the sequence (Q9GZQ6 whole entry) above, with Q37L, I293S, T307N counted along it
# NPFFR1 mutant (Q37^NtL, I293^6.58S, and T307^7.31N) (UniProt Q9GZQ6 1-430, Q37^NtL | I293^6.58S | T307^7.31N), sequence (Q9GZQ6 other isoform, or with tags, fused parts or gaps with the stated changes): as the sequence (Q9GZQ6 whole entry) above, with Q37L, I293S, T307N counted along it
molecule,measurement,setting,value
MPHSFANLPLRF-NH2 [GnIH] [listing 1 of 2 here],Emax,human NPFFR2,81 ± 2%
same,Emax,"human NPFFR1; NPFFR1 wild-type, HEK293T, 0.5 μM forskolin, three independent experiments",80 ± 3%
same,Emax,[1]; HEK-293T,80 ± 2%
GnIH/RFRP-3 (peptide),"fold decrease in forskolin-stimulated cAMP assay (GloSensor, HEK293T): response to GnIH, against wild-type NPFFR1",[2],30 fold
MPHSFANLPLRF-NH2 [GnIH] [listing 2 of 2 here],EC50,human NPFFR2,158 nM
same,EC50,"human NPFFR1; NPFFR1 wild-type, HEK293T, 0.5 μM forskolin, three independent experiments, read-out: pEC50 ± SEM (converted)",3.16 nM
same,EC50,[1],100 nM
AGEGLNSQFWSLAAPQRF-NH2 [NPAF],Emax,human NPFFR2,80 ± 2%
same,EC50,human NPFFR2,6.31 nM
same,EC50,human NPFFR1,200 nM
same,Emax,human NPFFR1,83 ± 3%
CC(C)C[C@H](NC(=O)[C@H](CC(N)=O)NC(=O)[C@@H]1CCCN1C(=O)[C@@H](N)C(C)C)C(=O)N1CCC[C@H]1C(=O)N[C@@H](CCC(N)=O)C(=O)N[C@@H](CCCNC(=N)N)C(=O)N[C@@H](Cc1ccccc1)C(N)=O [NPVF],Emax,human NPFFR2,78 ± 3%
same,EC50,human NPFFR2,631 nM
B1,"forskolin-stimulated cAMP assay (GloSensor, HEK293T): response to hNPSF, against wild-type NPFFR1",[3],~2 fold
same,binding result,[4],binds
